These results are taken from patent publication US7811551B2, “Imaging agents” (GE Healthcare AS, priority 2003, dated 2010).

The experiment addresses T1, ανβ3 integrin receptor (Homo sapiens, UniProt P05106+P06756).
T1 construct: Using cell membrane preparations known to express the ανβ3 integrin receptor; endogenous in cells
Put plainly: competitive binding with 125I-echistatin on cell membrane preparations. Conditions: cell membrane preparations expressing ανβ3 integrin receptor; 125I-echistatin as radioligand; Ki calculated using Prism software. The procedure:
Using cell membrane preparations known to express the ανβ3 integrin receptor, competitive binding studies were carried out using ^125I-echistatin and the F-labelled peptides as competing ligand. Binding curves were obtained and Ki's calculated using Prism™ software.

SMILES strings stand for the structures. Starred links: 1 amine or outer side, 2 acyl side, 3 side chain; linkers in the order of their positions; H or OH if unused. Positions of bridges follow the written chain, without caps; N, C: chain ends. Residues, ends and D or L forms follow the SMILES beside them. *: point of attachment. X1 = O=C(COCC(=O)*)NCCOCCOCCOCCOCCOCCNC(=O)CSCCCF; CH2 = C([*:1])[*:2]

For `N=C(N)NCCC[C@@H]1NC(=O)[C@@H]2CSCSC[C@H](NC(=O)[C@H](CC(=O)O)NC(=O)CNC1=O)C(=O)N[C@@H](Cc1ccccc1)C(=O)N[C@H](C(N)=O)CSCC(=O)N[C@@H](CCCCNC(=O)COCC(=O)NCCOCCOCCOCCOCCOCCNC(=O)CSCCCF)C(=O)N2` [Example 1] ({CH2CO}-K(X1)CRGDCFC-NH2; linker 2-6 via CH2; thioether N-8), the Ki was 7 nM.

For orientation: Ki means a dissociation constant, usually derived from enzyme kinetics or from competition with a known ligand.
